Experimental data from patent US5585105A, “Utilization of derivatives of 2,5-dihydroxyphenylcarboxylic acids, their homologs, and their salts in preparation of a cosmetic or dermatological composition with a depigmenting action” (L'Oreal, priority 1991, dated 1996).

Tested on: fungal tyrosinase
Test: in vitro tyrosinase activity inhibition test
Format: biochemical
Settings: decrease in maximum dopachrome formed (OD 475 nm, plateau) vs without inhibitor; inhibitor 50 mol. % relative to tyrosine; pH 6.5, 25° C.
Text: According to this test, the quantity of dopachrome formed during the chain of reactions by which tyrosine is converted into melanins is monitored by visible spectrometry at 475 nm. These reactions are catalyzed in vitro by fungal tyrosinase in the presence of a reducing cosubstrate (for example L-dopa in a small quantity) to initiate the hydroxylation reaction of L-tyrosine into L-dopa. The L-dopa is then oxidized catalytically into dopaquinone and then into dopachrome, an intermediate formed prior to the nonenzymatic oxidation reactions that lead to formation of melanins.
The inhibitor concentrations are established at 50 mol. % relative to the tyrosine concentration in the reaction medium.
The effect of inhibition is expressed by the decrease in the maximum quantity of dopachrome formed (optical density value at 475 nm read from the plateau of the curve) relative to the quantity obtained in the absence of inhibitor.
A--0.1 M phosphate buffer, pH=6.5 (Tween 20, 1%)
B--Stock solution of L-tyrosine, 2×10^-3 M in A
C--Stock solution of L-dopa, 10^-4 M in A
D--Stock solution of fungal tyrosinase, 2400 units/ml, in A
E--Stock solution of inhibitor, 10^-2 M in A (solutions C and D must be prepared on the day of the experiment).
reference cell: 3 ml of A
homogenize and equilibrate at 25° C.
mix rapidly and observe kinetics by measuring absorbance at 475 nm as a function of time.

Going from `COC(=O)Cc1cc(O)c(C)cc1O` to `Cc1cc(O)c(CC(=O)O)cc1O`, the “% change in maximum dopachrome vs no inhibitor” value (“% change … vs no inhibitor” below) rises from -87% to -66%.

First: Cc1c(O)cc(CC(=O)O)c(O)c1C
Second: Cc1cc(O)c(CCC(=O)O)cc1O
The “% change … vs no inhibitor” value of the first is higher: -59% for the first, -64% for the second.

Compared with `O=C(O)CCc1cc(O)ccc1O`, `Oc1ccc(O)cc1` [hydroquinone, reference compound] is higher in “% change … vs no inhibitor” value: -42% for the first, -33% for the second.

Tested on: melanocyte
Test: not given
Settings: background statement; cited from earlier work

For `Oc1ccc(O)cc1` [hydroquinone, reference compound], the “irritation and cytotoxicity to the melanocyte” value is given as “particularly irritating and cytotoxic to the melanocyte”.
